Laboratory results taken from publication PMC7515946, “Targeting of Perforin Inhibitor into the Brain Parenchyma Via a Prodrug Approach Can Decrease Oxidative Stress and Neuroinflammation and Improve Cell Survival” (Molecular Neurobiology, 2020).

Assays:
mouse primary astrocytes [1] = experiment: Intracellular unbound concentrations in astrocytes (RED dialysis, Kp,uu,cell); format: in vitro ADME; conditions: below 500 nM concentrations
Experimental: The non-specific binding of compounds (100 μM) was determined in astrocyte homogenate by using the Rapid Equilibrium Dialysis (RED) device (Thermo Fisher Scientific, Inc., Waltham, MA, USA). Briefly, the astrocyte cell suspension (10 × 10^6 cells/mL) was homogenized with HBSS by the SoniPerp 150 Plus disintegrator (MSE Ltd., London, UK) (2 s × 3). The studied compound was mixed with 100 μL of cell homogenate and added to the reaction chamber. A 350-μL HBSS buffer was added to the buffer chamber. The dialysis plate was incubated at 37 °C for 4 h with shaking. Fifty microliters of samples were taken from the reaction and buffer chambers and equal size of the buffer or blank homogenate were added, respectively, to yield identical matrices. The proteins were precipitated by adding 100 μL of ice-cold ACN (including the selected internal standard; see above), and the supernatants were collected for LC-MS analysis (see above) after centrifugation at 12,000 × g for 10 min. The unbound drug fraction (fu,cell) was calculated by dividing concentration in the buffer chamber by concentration in the reaction chamber and taking into account the effect of homogenate dilution factor (D = 45 for 10 × 10^6 cells/mL cell suspension according to their weight of the cells) as described earlier.
The compound concentration ratios in astrocytes (Kp) was determined at 0.01–1.0 μM concentrations by comparing the cellular uptake amount (nmol) in cell lysates (0.1 M NaOH) per astrocyte cell volume (0.05810^−15 L/cell for 10 × 10^4 cells/well) to the concentrations (nM) detected from the surrounding buffer (HBSS) collected before cell lysing as described previously. The unbound drug concentration ratio (Kp,uu) was then calculated by multiplying the drug concentration ratio (Kp) by unbound drug fraction (fu,cell).

mouse primary astrocytes [2] = test system: mouse primary astrocytes; design: method as in PMID 31492955; conditions: in the presence of a specific LAT1 inhibitor; cited from earlier work
[3] = design: method as in PMID 26705152; conditions: cited from earlier work
[4] = design: method as in PMID 26705152; conditions: cited from earlier work; remark: listed apart in the source
[5] = design: method as in PMID 31492955; conditions: cited from earlier work

Row | Compound | Detection in astrocyte cell lysates (mouse primary astrocytes [1]) | Inhibition of cellular uptake into primary astrocytes by a specific LAT1 inhibitor (mouse primary astrocytes [2]) | Bioconversion half-life in rat liver S9 subcellular fraction [3] | Stability in human plasma [4] | Bioconversion half-life in primary mouse astrocyte homogenate [5]
1 | O=C1OCc2cc(-c3ccc(-c4ccc(CO)cc4)s3)ccc21 [PFI] | not detected | – | – | – | –
2 | N[C@H](Cc1cccc(C(=O)OCc2ccc(-c3ccc(-c4ccc5c(c4)COC5=O)s3)cc2)c1)C(=O)O [PFI-PD] | – | over 70% | approximately 55 min | completely stable | approximately 6 h
